Patent publication US5430062A, “Stilbene derivatives as anticancer agents” (priority 1993, dated 1995)
“And” between values parts separate entries of the source, which are not always exact repeats. Equal entries are not always repeated. “Also recorded” adds a separate entry of the source. Where two headings read alike, the source gives them in different places.

Columns and labels:
MCF-7 breast carcinoma = assay: MTT cytotoxicity assay, MCF-7; details: Homo sapiens, MCF7, […]
tubulin [1] = assay: Inhibition of [3H]colchicine binding to tubulin (DEAE-filter); design: species or system bovine; details: for Colchicine binding % inhibition: 1 μM tubulin, 5 μM [3H]colchicine, 5 μM inhibitor, 10 min, 37° C.
A-549 lung carcinoma = assay: MTT cytotoxicity assay, A-549; details: Homo sapiens, A549, […]
[2] = tested on: HT-29 colon adenocarcinoma; assay: MTT cytotoxicity assay, HT-29; details: Homo sapiens, HT-29, […]
MLM melanoma = assay: MTT cytotoxicity assay, MLM; details: […]
[3] = tested on: five cancer cell cultures; assay: MTT cytotoxicity assay, five cancer cell cultures taken together; details: for cytotoxicity (in words): five cancer cell lines; for less cytotoxic than 1a and 5a: relative to 1a and 5a
tubulin [4] = assay: Inhibition of tubulin polymerization (turbidimetry); type: biochemical, bovine; details: for increase in IC50 / loss of activity in tubulin polymerization: relative to the parent 5a (8a, 5b) or 8a (12a)
SKMEL-5 melanoma = assay: MTT cytotoxicity assay, SKMEL-5; details: Homo sapiens, SK-MEL-5, […], read-out: Cytotoxicity ED50, SKMEL-5
CAKI-1 renal cancer = assay: Cytotoxicity, CAKI-1; details: read-out: cytotoxicity GI50, CAKI-1; 50% growth inhibition; average of two determinations; 8640 min
OVCAR-3 ovarian cancer = assay: Cytotoxicity, OVCAR-3; details: read-out: cytotoxicity GI50, OVCAR-3; 50% growth inhibition; average of two determinations; 8640 min
[5] = tested on: DMS 273 small cell lung cancer; assay: Cytotoxicity, DMS 273; details: read-out: cytotoxicity GI50, DMS 273; 50% growth inhibition; average of two determinations; 8640 min
SF-295 CNS cancer = assay: Cytotoxicity, SF-295; details: read-out: cytotoxicity GI50, SF-295; 50% growth inhibition; average of two determinations; 8640 min
M14 melanoma = assay: Cytotoxicity, M14; details: read-out: cytotoxicity GI50, M14; 50% growth inhibition; average of two determinations; 8640 min
[6] = read-out: Cytotoxicity ED50, MCF-7
[7] = read-out: Cytotoxicity ED50, A-549
[8] = read-out: Cytotoxicity ED50, HT-29
[9] = read-out: Cytotoxicity ED50, MLM
[10] = read-out: cytotoxicity ED50, five cancer cell lines
[11] = read-out: cytotoxicity ED50, in at least three cell lines
[12] = first series (Table VIII and text), 37° C., 20 min, read-out: Tubulin polymerization IC50 (±S.D.)
[13] = read-out: Cytotoxicity ED50, MCF-7, MCF-7, MTT, six days
[14] = read-out: Cytotoxicity ED50, A-549, A-549, MTT, six days
[15] = read-out: Cytotoxicity ED50, MLM, MLM, MTT, six days
[16] = Table X, different glutamate preparation (1M monosodium glutamate and GTP), read-out: inhibn of tubulin polymn IC50 (±SD)

SMILES	IC50 (MCF-7 breast carcinoma; [6])	Colchicine binding % inhibition (tubulin [1])	IC50 (A-549 lung carcinoma; [7])	IC50 [2, 8]	IC50 (MLM melanoma; [9])	cytotoxicity (in words) [3]	inhibition of tubulin polymerization (in words) (tubulin [4])	IC50 (tubulin [4]; [12])	IC50 (SKMEL-5 melanoma)	further results
COc1ccc(NCc2cc(OC)c(OC)c(OC)c2)cc1 [compound 12a, 3,4,5-Trimethoxy-N-(4-methoxyphenyl)benzylamine]	2.4 nM	34%	1.9 nM	1 nM	1.6 nM	only an order of magnitude less cytotoxic than 8a	only modest inhibitory effects on tubulin polymerization	23000 nM	0.7 nM	IC50 [3, 10]: ~1 nM; IC50 [3, 11]: < 1000 nM; increase in IC50 / loss of activity in tubulin polymerization (tubulin [4]): 3 -fold
COc1cccc(/C=C\c2cc(OC)c(OC)c(OC)c2)c1 [compound 5b, (Z)-1-(3-Methoxyphenyl)-2-(3,4,5-trimethoxy-phenyl)ethene]	–	50%	–	–	–	decreased the activity drastically	strong inhibitors of tubulin polymerization; also recorded: active as inhibitors of tubulin polymerization	8800 nM	60 nM	IC50 (MCF-7 breast carcinoma; [13]): 140 nM; IC50 (A-549 lung carcinoma; [14]): 130 nM; IC50 ([2]; read-out: Cytotoxicity ED50, HT-29, HT-29, MTT, six days): 90 nM; IC50 (MLM melanoma; [15]): 1400 nM; IC50 ([3]; read-out: cytotoxicity ED50): < 1000 nM; increase in IC50 / loss of activity in tubulin polymerization (tubulin [4]): 4 -fold
COc1ccc(N=Cc2cc(OC)c(OC)c(OC)c2)cc1 [108c, 4-Methoxy-N-(3,4,5-trimethoxybenzylidene)aniline]	–	–	–	–	–	–	–	–	–	GI50 (CAKI-1 renal cancer): > 100000 nM; GI50 (OVCAR-3 ovarian cancer): > 100000 nM; GI50 [5]: 33000 nM; IC50 (tubulin [4]; [16]): > 40000 nM
COc1cc(/C=C\c2ccccc2)cc(OC)c1OC [compound 5f, (Z)-1-Phenyl-2-(3,4,5-trimethoxyphenyl)ethene]	250 nM	14%	170 nM	84 nM	> 25000 nM	decreased the activity drastically	–	36000 nM	120 nM	–
COc1cc(/C=C\c2ccc(Cl)cc2)cc(OC)c1OC [5g, (Z)-1-(4-Chlorophenyl)-2-(3,4,5-trimethoxyphenyl)ethene]	180 nM	55%	80 nM	50 nM	170 nM	–	strong inhibitors of tubulin polymerization; also recorded: active as inhibitors of tubulin polymerization; also recorded: small reductions	4800 nM	10 nM	IC50 ([3]; read-out: cytotoxicity ED50): < 100 nM; less cytotoxic than 1a and 5a [3]: about 1000 -fold
COc1ccc(/C=C\c2cc(OC)c(OC)c(OC)c2)c(Cl)c1 [compound 5e]	–	73%	–	–	–	decreased the cytotoxicity	strong inhibitors of tubulin polymerization; also recorded: active as inhibitors of tubulin polymerization; also recorded: small reductions	3500 nM	17 nM	IC50 (MCF-7 breast carcinoma; [13]): 46 nM; IC50 (A-549 lung carcinoma; [14]): 51 nM; IC50 (MLM melanoma; [15]): 140 nM; less cytotoxic than 1a and 5a [3]: about 1000 -fold
COc1cc(/C=C\c2ccc(Br)cc2)cc(OC)c1OC [5h, (Z)-1-(4-Bromophenyl)-2-(3,4,5-trimethoxyphenyl)ethene]	16 nM	73%	11 nM	8.2 nM	14 nM	–	strong inhibitors of tubulin polymerization; also recorded: active as inhibitors of tubulin polymerization; also recorded: small reductions	3100 nM	6.7 nM	IC50 ([3]; read-out: cytotoxicity ED50): < 100 nM; less cytotoxic than 1a and 5a [3]: about 1000 -fold
COc1cc(CCc2ccc(N(C)C)cc2)cc(OC)c1OC [compound 8n, 1-[4-(Dimethylamino)phenyl]-2-(3,4,5-trimethoxyphenyl)ethane]	64 nM	31%	83 nM	77 nM	120 nM	–	only modest inhibitory effects on tubulin polymerization	29000 nM	59 nM	IC50 [3, 11]: < 1000 nM
COc1ccc(CCc2cc(OC)c(OC)c(OC)c2)cc1O [compound 1c, reference compound]	330 nM	79%	10 nM	8.1 nM	10 nM	–	–	3300 nM	2.1 nM	inhibition of colchicine binding (in words) (tubulin [1]): inhibit the binding of radiolabeled colchicine to tubulin
COc1cc(/C=C\c2ccc(N(C)C)cc2)cc(OC)c1OC [compound 5n, (Z)-1-[4-(N,N-Dimethylamino)phenyl)-2-(3,4,5-trimethoxyphenyl)ethene]	5.8 nM	83%	4.1 nM	8.1 nM	9.4 nM	–	strong inhibitors of tubulin polymerization; also recorded: small reductions	3400 nM and 3500 nM	0.15 nM	IC50 [3, 10]: < 100 nM; IC50 [3, 11]: < 1000 nM
COc1ccc(NCc2cc(OC)cc(OC)c2)cc1 [compound 12d]	6080 nM	39%	5710 nM	17800 nM	> 25000 nM	–	–	29000 nM	2410 nM	–
CCc1ccc(N=Cc2cc(OC)c(OC)c(OC)c2)cc1 [108b, 4-Ethyl-N-(3,4,5-trimethoxybenzylidene)aniline]	–	–	–	–	–	–	–	–	–	GI50 (CAKI-1 renal cancer): > 100000 nM; GI50 (OVCAR-3 ovarian cancer): > 100000 nM; GI50 (SF-295 CNS cancer): > 100000 nM; GI50 (M14 melanoma): > 100000 nM; GI50 [5]: > 100000 nM; IC50 (tubulin [4]; [16]): > 40000 nM
COc1cc(/C=C\c2ccc(OC(C)=O)cc2)cc(OC)c1OC [compound 5p, (Z)-1-(4-Acetoxyphenyl)-2-(3,4,5-trimethoxyphenyl)ethene]	300 nM	24%	1700 nM	6000 nM	6300 nM	decreased the activity drastically	–	29000 nM	600 nM	–
COc1ccc(CCc2cc(OC)c(OC)c(OC)c2)cc1 [compound 8a, 1-(4-Methoxyphenyl)-2-(3,4,5-trimethoxyphenyl)ethane]	0.16 nM	65%	0.18 nM	0.25 nM	0.18 nM	more cytotoxic than dihydrocombretastatin A-4 (1c) in all five cancer cell lines	strong inhibitors of tubulin polymerization	7900 nM	0.14 nM	IC50 [3, 10]: ~0.2 nM; IC50 [3, 11]: < 1000 nM; increase in IC50 / loss of activity in tubulin polymerization (tubulin [4]): ~4 -fold
